Data set [1] has as its system Male Lewis rats. The experiment in a line: Rheumatoid Arthritis Protocol (adjuvant-induced paw swelling). It counts as in vivo. The conditions noted are these: M. butyricum adjuvant. As to the method:
Male Lewis rats (150-175 g) from Charles River Laboratories were anesthetized on day 0 with 3-5% isoflurane anesthesia while the tail base was shaved and adjuvant mixture was injected. 50 μL of adjuvant (10 mg/ml M. butyricum in mineral oil) was injected subcutaneously into two sites at the tail base. Paw swelling was monitored using a plethysmometer (UGO Basile), after shaving each leg to the level of the Achilles tendon to mark the level of immersion. A baseline paw measurement for both hindpaws was taken between […] a second measurement was taken on day 8. Onset of paw swelling occurred rapidly between days 8-11 and daily measurements were performed every weekday between day 8 and day 14. Compounds of the invention and vehicles were dosed therapeutically (d8-13) after swelling was confirmed. Solutions were injected subcutaneously or given orally by gavage 1-2 times per day. From day 0, rats were weighed on days 0, 8, 11, and 14 and overall health was monitored. Plasma drug levels, if desired, were measured in tail-vein derived blood samples taken on day 13. On day 14, blood samples were obtained by cardiac puncture, rats were euthanized with CO2, selected organs were removed and both hindpaws were amputated and placed in 10% buffered formalin for histopathological analysis. See Biological Table 2.

The test system of data set [2] is Balb/C mice. The experiment in a line: Asthma Protocol (ovalbumin sensitized and challenged mice, bronchoaveolar lavage cell counts). It counts as in vivo. The conditions noted are these: ovalbumin sensitized and aerosol challenged, lavage fluid cell counts. As to the method: Balb/C mice (6-8 weeks old) are sensitized to ovalbumin (ova) (8 ug ova absorbed in 3.3 mg Alum inject) on days 0 and 5. On day 12, the mice were aerosol challenged with 0.5% ovalbumin dissolved in sterile saline for 1 h in the AM, and then again in the PM (at least 4 h apart). On day 14, the mice were anesthetized with ketamine/xylazine/acepromazine cocktail, exsanguinated, and then euthanized. Following blood collection, bronchoaveolar lavage was performed on each animal. Total cell counts were conducted on the lavage fluid. The lavage fluid was processed and slides were made by spinning the samples with a cytospin centrifuge. Slides were airdried and stained using Diff-Quik® stain. Cell differentials of the lavage fluid were completed at the conclusion of the study. Statistical analysis involved ANOVA and Tukey-Kramer post hoc tests. Compounds were administered by subcutaneous injection twice daily from day 11-13. The formulations used contained various mixtures of the following excipients (pharmasolve, cremophor RH 40, tween 80, PEG 300). See Biological Table 3

Data set [3] deals with VCAM-1. Nature of the data set: In Vitro VCAM-1 Assay (ELISA of VCAM-1 on TNF-α stimulated endothelial cells). It counts as cell-based. The conditions noted are these: Endothelial cell; primary human aortic (HAEC) or pulmonary (HPAEC) endothelial cells, TNF-α (1 ng/ml), approximately 16 hours. As to the method: Cell Culture and compound dosing: Cultured primary human aortic (HAEC) or pulmonary (HPAEC) endothelial cells were obtained from Clonetics, Inc., and were used below passage 9. Cells were seeded in 96 well plates such that they would reach 90-95% confluency by the following day. On the following day the cells were stimulated with TNF-α (1 ng/ml) in the presence or absence of compounds dissolved in DMSO such that the final concentration of DMSO is 0.25% or less. To establish a dose curve for each compound, four concentrations in 2- to 5-fold increments were used. Cells were exposed to TNF-α and compounds for approximately 16 hours. The next day the cells were examined under microscope to score for visual signs of toxicity or cell stress.
Following 16 hr exposure to TNF-α and compound the media was discarded and the cells were washed once with Hanks Balanced Salt Solution (HBSS)/Phosphate buffered saline (PBS) (1:1). Primary antibodies against VCAM-1 (0.25 μg/ml in HBSS/PBS+5% FBS) were added and incubated for 30-60 minutes at 37° C. Cells were washed with HBSS/PBS three times, and secondary antibody Horse Radish Peroxidase (HRP)-conjugated goat anti-mouse IgG (1:500 in HBSS/PBS+5% FBS) were added and incubated for 30 minutes at 37° C. Cells were washed with HBSS/PBS four time and TMB substrate were added and incubated at room temperature in the dark until there was adequate development of blue color. The length of time of incubation was typically 5-15 minutes. 2N sulfuric acid was added to stop the color development and the data was collected by reading the absorbance on a BioRad ELISA plate reader at OD 450 nm. The results are expressed as IC50 values (the concentration (micromolar) of compound required to inhibit 50% of the maximal response of the control sample stimulated by TNF-α only).

Some results are limits rather than exact numbers.

On to `C=C(C(=O)c1ccc(C(=O)O)cc1)c1cc(-c2cccs2)ccc1OC` [Example 8, 4-[2-(2-Methoxy-5-thien-2-yl-phenyl)-acryloyl]-benzoic acid], for which, in data set [1], the “% Inhibition 20 mg/kg sq, bid, d8-13” value is recorded as 44%. The “% Inhibition 6 mg/kg sq, bid, d11-13” value in data set [2] is recorded as 50%. In data set [3], this compound showed an IC50 of less than 1000 nM.

`C=C(C(=O)c1c(OC)ccc(-c2cccs2)c1OC)c1ccc(C(=O)O)cc1` [Example 30, 4-[1-(2,6-Dimethoxy-3-thien-2-yl-benzoyl)-vinyl]-benzoic acid] showed a melting point of 193 to 195 °C. In addition, the “% Inhibition 20 mg/kg sq, bid, d8-13” value in data set [1] is reported as 77%. Also, the “% Inhibition 6 mg/kg sq, bid, d11-13” value in data set [2] was 45%. In data set [3], this compound displayed an IC50 of less than 1000 nM.

Turning to `C=C(C(=O)c1c(OC)cccc1OC)c1ccc(OC(C)(C)C(=O)O)c(-c2cccs2)c1` [Example 37, 2-{4-[1-(2,6-Dimethoxy-benzoyl)-vinyl]-2-thien-2-yl-phenoxy}-2-methyl-propionic acid], the melting point is 56.5 °C (dec.). In data set [2], the “% Inhibition 6 mg/kg sq, bid, d11-13” value is given as 27%. Moreover, in data set [3], the IC50 is less than 6000 nM.

Compound `C=C(C(=O)c1ccc(C(=O)O)cc1)c1cc(-c2ccsc2)ccc1OC` [Example 62, 4-[2-(2-Methoxy-5-thien-3-yl-phenyl)-acryloyl]-benzoic acid] gave a melting point of 192 to 194 °C. Also, the IC50 in data set [3] was less than 1000 nM.

The compound `C=C(C(=O)c1c(OC)ccc(-c2cccs2)c1OC)c1ccc(S(=O)(=O)N(C)CC(=O)O)cc1` [Example 63, ({4-[1-(2,6-Dimethoxy-3-thien-2-yl-benzoyl)-vinyl]-benzenesulfonyl}-methyl-amino)-acetic acid] returned a melting point of 164 to 166 °C. This compound also yielded an IC50 in data set [3] of less than 10000 nM.

On to `C=C(C(=O)c1c(OC)ccc(-c2cccs2)c1OC)c1c(F)cccc1C(F)(F)F` [Example 64, 1-(2,6-Dimethoxy-3-thien-2-yl-phenyl)-2-(2-fluoro-6-trifluoromethyl-phenyl)-propenone], for which the melting point lay within 76 to 78 °C. For the same compound, the 50% inhibitory concentration (IC50) in data set [3] was more than 10000 nM.

The compound `C=C(C(=O)c1c(OC)cccc1OC)c1cc(-c2cccs2)ccc1OC` [Example 65, 1-(2,6-Dimethoxy-phenyl)-2-(2-methoxy-5-thien-2-yl-phenyl)-propenone] had a melting point of 162 to 163 °C. This compound also showed an IC50 in data set [3] of less than 1000 nM.

`C=C(C(=O)c1c(OC)cccc1OC)c1cc(-c2cccs2)ccc1OC(C)(C)C(=O)O` [Example 66, 2-{2-[1-(2,6-Dimethoxy-benzoyl)-vinyl]-4-thien-2-yl-phenoxy}-2-methyl-propionic acid] had a melting point of 72 to 84 °C. In addition, the concentration for half-maximal inhibition (IC50) in data set [3] is less than 3000 nM.

The values are drawn from patent publication US20060063828A1 (priority 2004, published 2006).
